What all share (assay type): in vivo
One assay has as its system Cyperus species. In words: Herbicidal action in the field (post-emergence treatment). The text has this:
(§1) The mixtures according to the invention were applied pre- or post-emergence (foliar treatment). The herbicidal compounds of component B were applied in the formulation in which they are present as commercially available product.
(§2) Some of the experiments were greenhouse experiments and some were field trials on mini plots (on a site with sandy loam (pH 6.2 to 7.0) or sandy clay (pH 5.0 to 6.7) as the soil).
(§3) The harmful plants differed with regard to size and developmental state; on average, they were 5 to 20 cm long, depending on the growth habit.
(§4) The herbicidally active compounds of components A) and B) were applied in succession or jointly, in the latter case in some cases as a tank mix and in some cases as a readymix, in the form of emulsions, aqueous solutions or suspensions, the vehicle being water ([…]). In the case of the field trials, application was effected with the aid of a mobile plot sprayer.
(§5) The test period extended over 3 to 8 weeks, and the stands were also observed at later points in time.
(§6) Damage by the herbicidal compositions was evaluated with reference to a scale of 0% to 100% in comparison with untreated control plots. 0 means no damage and 100 means complete destruction of the plants.
(§7) In these examples, the value E at which only an additive effect of the individual active ingredients is to be expected was calculated by the method of S. R. Colby (Calculating synergistic and antagonistic responses of herbicide combinations, Weeds 15, 20 pp (1967).

For another assay, the system named is Setaria faberi. The description is as above.
Text: as §1, §2, §3, §4, §5, §6, §7

The next assay concerns Ipomoea ssp. In words: Herbicidal action in the greenhouse (post-emergence treatment).
Text: as §1, §2, §3, §4, §5, §6, §7

The next assay concerns Veronica ssp. The description is as above.
Text: as §1, §2, §3, §4, §5, §6, §7

Assay [1] concerns Abutilon theophrasti. Described as above. Conditions: acetochlor 31.2 g/ha a.s.
Text: as §1, §2, §3, §4, §5, §6, §7

The subject of another assay is Galium aparine. In words: Herbicidal action in the field (post-emergence treatment).
Text: as §1, §2, §3, §4, §5, §6, §7

Assay [2] has as its system Abutilon theophrasti. The assay is described as above. The note with it: atrazine 1120 g/ha a.s.
Text: as §1, §2, §3, §4, §5, §6, §7

For another assay, the system named is Sorghum bicolor. The description is as above. The note with it: atrazine 840 g/ha a.s.
Text: as §1, §2, §3, §4, §5, §6, §7

The test system of assay [3] is Ipomoea purpurea var. diversifolia. The description is as above.
Text: as §1, §2, §3, §4, §5, §6, §7

Assay [4] has as its system Alopecurus myosuroides. The assay can be described thus: Herbicidal action in the greenhouse (post-emergence treatment).
Text: as §1, §2, §3, §4, §5, §6, §7

Assay [5] deals with Alopecurus myosuroides. In words: Herbicidal action in the field (post-emergence treatment). Conditions: fenoxaprop-ethyl 83 g/ha a.s.
Text: as §1, §2, §3, §4, §5, §6, §7

A further assay concerns Amaranthus retroflexus. The assay can be described thus: Herbicidal action in the greenhouse (post-emergence treatment). Conditions: Amaranthus retroflexus, post-emergence.
Text: as §1, §2, §3, §4, §5, §6, §7

Another assay concerns Digitaria adscendens. In words: Herbicidal action in the field (post-emergence treatment). Conditions: flufenacet 600 g/ha a.s.
Text: as §1, §2, §3, §4, §5, §6, §7

In a further assay the test system is Bidens pilosa. The description is as above.
Text: as §1, §2, §3, §4, §5, §6, §7

A further assay relates to Ipomoea acuminata. Described as above.
Text: as §1, §2, §3, §4, §5, §6, §7

Another assay relates to Stellaria media. The assay is described as above.
Text: as §1, §2, §3, §4, §5, §6, §7

The next assay has as its system Echinochloa crus-galli. The assay can be described thus: Herbicidal action in the greenhouse (post-emergence treatment). Conditions: pyrithiobac-sodium 7.8 g/ha a.s.
Text: as §1, §2, §3, §4, §5, §6, §7

Turning to `Cc1cc(Cl)ccc1OCC(=O)O` [MCPA, reference compound], the Damage in the assay with Cyperus species (MCPA 600 g/ha a.s.) is on record as 5%.

As to `COc1nc(NC(=O)NS(=O)(=O)c2ccccc2C(F)(F)F)nc(C(F)(F)F)n1` [N-[[[4-methoxy-6-(trifluoromethyl)-1,3,5-triazin-2-yl]amino]carbonyl]-2-(trifluoromethyl)benzenesulfonamide, reference compound], in the assay on Setaria faberi (the benzenesulfonamide (B2) 50 g/ha a.s.), the Damage worked out at 0%.

As to `O=C(O)c1c(Cl)ccc2cc(Cl)cnc12` [Quinclorac, quinclorac, reference compound], the Damage in the assay on Ipomoea ssp. (Quinclorac 250 g/ha a.s.) was 70%; with Veronica ssp. (Quinclorac 500 g/ha a.s.), 80%.

Turning to `CCOCN(C(=O)CCl)c1c(C)cccc1CC` [acetochlor, reference compound], the Damage in the assay on Abutilon theophrasti [1] came out at 0%.

As for `O=C(O)c1cc(Oc2ccc(C(F)(F)F)cc2Cl)ccc1[N+](=O)[O-]` [acifluorfen, reference compound], the Damage with Galium aparine (acifluorfen 100 g/ha a.s.) is reported as 48%.

For the compound `CCNc1nc(Cl)nc(NC(C)C)n1` [atrazine, reference compound], the Damage in the assay with Abutilon theophrasti [2] is 32%; with Setaria faberi (atrazine 1120 g/ha a.s.), 20%; with Sorghum bicolor, 27%.

As for `N#Cc1cc(Br)c(O)c(Br)c1` [bromoxynil, reference compound], the Damage in the assay with Galium aparine (bromoxynil 470 g/ha a.s.) came to 84%.

Consider `Nc1cnn(-c2ccccc2)c(=O)c1Cl` [chloridazon, reference compound], for which the Damage in assay [3] (chloridazon 1720 g/ha a.s.) was 40%.

On to `CCOC(=O)/C(Cl)=C/c1cc(N2C(=O)C3=C(CCCC3)C2=O)ccc1Cl` [cinidon-ethyl, reference compound], for which, in the assay on Galium aparine (cinidon-ethyl 7.8 g/ha a.s.), the Damage worked out at 90%.

Regarding `CN(C)C(=O)Nc1ccc(Cl)c(Cl)c1` [diuron, reference compound], in the assay with Alopecurus myosuroides [4] (diuron 250 g/ha a.s.), the Damage is given as 80%.

For `CCOC(=O)C(C)Oc1ccc(Oc2nc3ccc(Cl)cc3o2)cc1` (stereo not shown) [fenoxaprop-ethyl, reference compound], the Damage with Alopecurus myosuroides [5] was 82%; in the assay with Galium aparine (fenoxaprop-ethyl 83 g/ha a.s.) it was 0%. Moreover, in the assay on Amaranthus retroflexus (fenoxaprop-ethyl (title: fenoxaprop-P-ethyl) 31.2 g/ha a.s., read-out: Damage), the pest or weed control at 31.2 g/ha was determined as 0%.

In the case of `CC(C)N(C(=O)COc1nnc(C(F)(F)F)s1)c1ccc(F)cc1` [flufenacet, reference compound], the Damage in the assay on Digitaria adscendens is reported as 58%.

`COC(=O)c1c(Cl)nn(C)c1S(=O)(=O)NC(=O)Nc1nc(OC)cc(OC)n1` [halosulfuron-methyl, reference compound]: the Damage in the assay with Alopecurus myosuroides [4] (halosulfuron-methyl 31.2 g/ha a.s.) is given as 45%. Besides, the pest or weed control at 7.8 g/ha in the assay with Amaranthus retroflexus (read-out: Damage, halosulfuron-methyl 7.8 g/ha a.s.) is 80%.

With `CC(C)C1(C)N=C(c2ncccc2C(=O)O)NC1=O` (stereo not shown) [imazapyr, reference compound], the results for the Damage in the assay with Alopecurus myosuroides [4] (imazapyr 250 g/ha a.s.) and in the assay with Ipomoea ssp. (imazapyr 62.5 g/ha a.s.) were 90% and 85%, respectively.

Take `CC(C)C1(C)N=C(c2nc3ccccc3cc2C(=O)O)NC1=O` (stereo not shown) [imazaquin, reference compound]: in the assay with Bidens pilosa (imazaquin 150 g/ha a.s.), the Damage is on record as 45%.

Take `CCc1cnc(C2=NC(C)(C(C)C)C(=O)N2)c(C(=O)O)c1` (stereo not shown) [imazethapyr, reference compound]: the Damage is 33% with Ipomoea acuminata (imazethapyr 70 g/ha a.s.) and 58% in assay [3] (imazethapyr 70 g/ha a.s.).

For the compound `CC(C)c1ccc(NC(=O)N(C)C)cc1` [isoproturon, reference compound], the Damage with Stellaria media (isoproturon 1000 g/ha a.s.) was 94%.

Take `COc1cc(OC)n2nc(S(=O)(=O)Nc3c(Cl)ccc(C)c3Cl)nc2n1` [metosulam, reference compound]: the Damage with Veronica ssp. (metosulam 1.9 g/ha a.s.) was 40%.

With `CSc1nnc(C(C)(C)C)c(=O)n1N` [metribuzin, reference compound], the Damage in the assay with Bidens pilosa (metribuzin 200 g/ha a.s.) came out at 38%; in the assay with Cyperus species (metribuzin 200 g/ha a.s.), 50%.

On to `CCCCCCCCSC(=O)Oc1cc(Cl)nnc1-c1ccccc1` [pyridate, reference compound], for which the Damage with Bidens pilosa (pyridate 450 g/ha a.s.) amounted to 25%; with Setaria faberi (pyridate 450 g/ha a.s.), 0%.

In the case of `COc1cc(OC)nc(Sc2cccc(Cl)c2C(=O)O)n1` [pyrithiobac-sodium, reference compound], the Damage in the assay with Echinochloa crus-galli amounted to 10%.

Regarding `CS(=O)(=O)c1ccc(C(=O)C2C(=O)CCCC2=O)c(Cl)c1` [sulcotrione, reference compound], in the assay with Ipomoea acuminata (sulcotrione 300 g/ha a.s.), the Damage was determined as 86%. For the same compound, the pest or weed control at 250 g/ha with Amaranthus retroflexus (read-out: Damage, sulcotrione 250 g/ha a.s.) turned out to be 45%.

imazamethabenz [reference compound]: the Damage in the assay on Stellaria media (imazamethabenz 525 g/ha a.s.) is 0%.
